As usually defined, the melting point is the temperature, or range, at which the solid turns liquid. Take `O=C1CCC(c2ccccc2)(c2ccccc2)C2CN(C(Cc3ccccc3)=NCc3ccco3)CC12` (configuration not stated): the melting point amounted to 128 °C. Then `COc1ccc(OCc2ccccn2)c(/C=C/c2cc(/C=C/c3ccc4cc[nH]c4c3)n[nH]2)c1`, with 119 to 124 °C; and `CNc1cc(NC)nc(NC)n1`, with 215 °C. With `Nc1ccc(SCc2csc(NC=O)n2)cc1` the figure was 180 to 182 °C. The molecule `CC(=O)Oc1ccc(C(=O)NNC(=O)c2occ(-c3ccccc3)c2-c2ccccc2)cc1C#N` yielded a melting point of 131 to 133 °C.

As to `Oc1ccc(-c2nc3ccc(O)cc3o2)cc1`, the melting point is over 300 °C. Then `C(=C\c1nc2ccccc2n1-c1ccccn1)/c1cccs1`, with 130 to 131 °C; and `CNC(=O)c1cc(OC)c(-c2ccc(C[C@H](NC(=O)c3c(Cl)cccc3Cl)C(=O)O)cc2)c(OC)c1`, with 251 to 252 °C. In turn, `O=S(=O)(CC(Cl)(Cl)Cl)c1cc(Cl)ccc1Cl` gave a melting point of 96 °C. Then `O=C(O)COc1cccc2c1CCc1sc(SC(c3ccccc3F)c3ccccc3F)nc1-2`, with 194 to 196 °C; and `COCCn1c(C)cc(C(=O)c2cccc(Cl)c2)c1C`, with 112 to 113 °C.

On to `O=C1CCCSC1C(=O)c1ccc([N+](=O)[O-])cc1Cl` (configuration not stated), for which the melting point lay in the range of 59.5 to 62.5 °C. Then `COC1=C(OC)C(=O)C(CCCCC[C@H]2CC[C@H](O)CC2)=C(C)C1=O`, with 49 to 51 °C; and `CC(=O)c1ccc2c(c1)C(C)(C)c1cccnc1O2`, with 106 to 108 °C; and `Oc1cc(Cl)c(OCc2ccc(F)c(Oc3ccccc3)c2)c(Cl)c1`, with 145 °C. Turning to `COC(=O)c1ccc(CN2C(=O)C(CCOc3ccc(CCNC(=O)OC(C)(C)C)cc3)Oc3ccccc32)cc1` (configuration not stated), the melting point is 110 to 112 °C.

The molecule `COCN(c1cccc2cc(-c3ncn(C)n3)n(COC)c12)S(=O)(=O)c1cccs1` returned a melting point of 157 to 158 °C. Then `O=CC1=Cc2cc(OCc3ccc(C(F)(F)F)cc3)ccc2OC1`, with 108 to 110 °C; and `O=C1CCC(N2Cc3c(CNC(=O)Nc4cccc(Cl)c4)cccc3C2=O)C(=O)N1` (configuration not stated), with 250 to 252 °C; and `COC(=O)CNC(=O)Nc1cc(F)ccc1[N+](=O)[O-]`, with 133 to 135 °C. With `CC#CCOc1ccc(S(=O)(=O)C2(C(=O)O)CCN(Cc3ccc(C#N)cc3)CC2)cc1` the figure was 110 °C. Then `FC(F)c1cc(Cl)nc2c1cnn2C1CCCCO1` (configuration not stated), with 93 °C. In turn, `CC(CCCc1ccccc1)c1cc(O)c2c(c1)N1C(=O)CCC1CC2=O` (configuration not stated) yielded a melting point of 127 to 130 °C. With `CCC(C)(C)c1ccc(OCCCCSC2C(=O)N(c3c(Cl)cc(Cl)cc3Cl)N=C2Nc2ccc(Cl)cc2Cl)c(C(C)(C)CC)c1` (configuration not stated) the figure was 142 to 144 °C. With `CS(=O)(=O)c1ccc(-c2cnn(Cc3ccc4ccccc4n3)c(=O)c2-c2ccc(F)cc2)cc1` the figure was 97 to 100 °C; with `O=C(O)C1(c2ccc3c(c2)CCCC3)CCC1`, 123 to 126 °C; with `N#Cc1ccc(OCc2ccc(F)cc2)cc1`, 82 to 83 °C. The molecule `C#Cc1ccc(C(=O)OC)nc1` had a melting point of 40 to 45 °C. Then `COCOc1cc(C=CC(=O)c2c(OC)cc(OC)c(CC=C(C)C)c2O)ccc1OC`, with 116 to 117 °C; and `COc1c(NC2CCC(=Cc3ccccc3)CC2)ccnc1C` (configuration not stated), with 120 °C.

`COc1cccc2c1nc(C(F)F)n2-c1nc(NC2CCN(C(=O)OC(C)(C)C)CC2)c(N)c(N2CCOCC2)n1` showed a melting point of 223 to 225 °C. With `CN(C)C(=S)C(O)c1ccc(OCc2ccccc2)cc1` (configuration not stated) the figure was 104 to 107 °C; with `O=[N+]([O-])c1cc(OCC2CCCSC2)c(Cl)cc1F` (configuration not stated), 100 to 103 °C; with `CN/C(=C1/Sc2ccccc2C1=O)c1ccccc1`, 154 to 155 °C. Then `C=CCONC(=O)COc1cccc2c1c(C(=O)C(N)=O)c(CC)n2Cc1ccccc1`, with 175 to 177 °C; and `Brc1ccc(C#Cc2c3ccccc3c(C#Cc3ccc(Br)cc3)c3ccccc23)cc1`, with 305 °C.

Molecule `O=c1c(-c2ccccc2O)coc2c(O)c(O)ccc12` gave a melting point of 240 to 242 °C. `CCOC(=O)c1cc2cc(-c3ccc(OC(F)(F)F)cc3)ccc2n1Cc1ccc(C)cc1` had a melting point of 77 to 78 °C. As to `CCOC(=O)CN1CCN(C2=Nc3ccccc3Cc3ccccc32)CC1`, the melting point was in the range of 107 to 108 °C.

For the molecule `Cc1cc2c(cc1O)C(C1(CC3CCCC3)CC1)N(C)CC2` (configuration not stated), the melting point is 136 to 138 °C. `CC(=O)Nc1ccc(NC(=O)c2ccc3c(c2)NC(=O)C3(C)C)cc1` had a melting point of 294 to 295 °C. `COc1cc(-c2csnc2C)cc2oc(=O)c(C)c(C)c12` gave a melting point of 163 to 165 °C. The molecule `O=C(NC1N=C(c2ccc(F)cc2)c2ccccc2NC1=O)OCc1ccccc1` (configuration not stated) had a melting point of over 260 °C.

Regarding `COC(COc1ccc(Oc2ccccc2)cc1)OC`, the melting point stood at 76.7 °C. Then `CNn1c(N(C)C)nn(C(=O)NC2CCCC2)c1=O`, with 137 °C; and `CCCCCCCCCCCCCCCCCCOc1cn(Cc2ccccc2)c(CO)cc1=O`, with 120 to 121 °C. Consider `CC(C)(Cc1ccc(Cl)cn1)C(N)=O`, for which the melting point lay in the range of 51.4 to 53.4 °C.

For the molecule `CN1CCN(c2cc(Br)cc3c2c(=O)n(Cc2ccccc2)c(=O)n3Cc2ccccc2)CC1`, the melting point was in the range of 80 to 84 °C. With `O=S(=O)(Cc1ccccc1)On1nnc2ccccc21` the figure was 65 to 67 °C; with `N#Cc1c(Br)c(C(F)(F)F)n(CBr)c1-c1ccc(Cl)cc1`, 131 to 132 °C. With `Cc1cc(C#N)cc(C(=O)c2c(C(C)C)c(=O)[nH]c(=O)n2CC2(CC(=O)O)CC2)c1` the figure was 244 to 245 °C; with `CCOC(=O)Cc1c(C2CCCCC2)nn(-c2ccccc2)c1-c1ccccc1`, 176 to 178 °C.

In turn, `COc1ccc(Cl)cc1-c1c(S)c(=O)[nH]c2ccc(C(F)(F)F)cc12` came in with a melting point of 239 to 241 °C. Then `Cc1ccc(F)c(NS(=O)(=O)c2n[nH]c(NC=O)n2)c1F`, with 270 to 273 °C; and `COC(=O)C(Cc1ccc(OCCn2ccc3cccnc32)cc1)C(=O)O` (configuration not stated), with 120 to 122 °C; and `Cc1ccc(C)c(C(=O)c2cc(Cl)ccc2Cl)c1`, with 58 to 61 °C. With `Cc1ccc(OC2SCC(O)C(O)C2O)c(-c2ccncc2)n1` (configuration not stated) the figure was 196 to 200 °C; with `CCCCCC(C)C(C)c1cc(O)c2c(c1)OC(C)(C)C1=C2CN(CC(=O)NC(=O)NC)CC1` (configuration not stated), 145 to 147 °C; with `CC(C)Cc1nc(N)c(C(=O)c2c[nH]c3ccccc23)[nH]c1=O`, 228 to 230 °C.

The molecule `CCCc1cc(Cl)c2sc(Cc3ccc(OC)cc3)c(C)c2c1O` gave a melting point of 114 to 116 °C. With `CN(C)C(=O)Nc1ccc(O)c([N+](=O)[O-])c1` the figure was 142 °C; with `O=C1c2ccccc2C(=O)N1Cc1cc(I)ccc1Cl`, 134 to 136 °C. Then `N#Cc1ccc2c3c(cc([N+](=O)[O-])c2c1)NCC3CCl` (configuration not stated), with 237 to 238 °C; and `CN1C(=NCCCCn2ccnc2)c2cccc3cccc1c23`, with 126 to 127 °C; and `CCCCC(=O)c1ncc(-c2ccccn2)o1`, with 36 to 37 °C. Regarding `CCCCc1nc(C(C)(C)O)c(C(N)=O)n1Cc1ccc(-c2ccccc2C(=O)O)cc1`, the melting point lay within 130 to 138 °C. With `CN1CCN(C(=O)[C@H](CC(N)=O)NC(=O)CCc2ccc(OCc3ccccc3)cc2OCc2ccccc2)CC1` the figure was 121 to 123 °C; with `CN1CCn2nc(Nc3cc(-c4cccc(N5Cc6cc(N(C)C)ccc6C5=O)c4CO)cn(C)c3=O)cc2C1`, 148 to 150 °C.

Turning to `Cc1oc(-c2ccccc2)nc1COc1ccc(CCCCC2OC(=O)NC2=O)cc1` (configuration not stated), the melting point was 186 to 187 °C.

`CCc1nn2c(-c3ccc(Cl)cc3Cl)cnnc2c1C(CC)CC` showed a melting point of 117 to 118 °C.

As for `N#CN=C(Nc1cccc(F)c1)NC(NC(=O)c1ccc(Cl)cc1)c1ccsc1` (configuration not stated), the melting point was in the range of 166 to 168 °C. With `Nc1nc(N)nc(C23CC4CC(CC(C4)C2)C3)n1` the figure was 261 to 262 °C. Molecule `CC(C)(C)C(O)C(CC1CCCCC1)n1cncn1` (configuration not stated) yielded a melting point of 104 to 107 °C. Molecule `CCn1nc(Cc2ccc(NC(=O)/C=C/c3cnn(C)c3-c3ccc(F)cc3)cc2)oc1=O` yielded a melting point of 149 to 150 °C. Consider `O=C1N(CCCCN2CCN(c3n[nH]c4cc(F)ccc34)CC2)CSC12CCCCC2`, for which the melting point was 163 to 165 °C.

Regarding `O=C(Nc1cccc(S(=O)(=O)N(CCO)CCO)c1)c1cnn2c(C(F)(F)F)cc(-c3ccc(C(F)(F)F)cc3)nc12`, the melting point stood at 209 °C. Then `CC(C)(C)OC(=O)COc1ccc2sc(C(=O)Nc3ccccc3NC(=O)OC(C)(C)C)cc2c1`, with 166 °C. `Cc1ccc2cccc(OCc3c(Cl)ccc(S(=O)(=O)n4cccc4)c3Cl)c2n1` had a melting point of 216 to 217 °C. Then `O=[N+]([O-])c1cnccc1Nn1ccc2ccccc21`, with 170 to 172 °C. With `Cc1c(C=O)c2c(c(C)c1NC=O)C(c1ccc(C(C)C)cc1)CO2` (configuration not stated) the figure was 123 to 124 °C; with `CC1COCc2nc3c(N)nc4cc(O)ccc4c3n21` (configuration not stated), over 250 °C; with `Clc1ccc(OCc2ccccc2)cn1`, under 50 °C. Molecule `N#CCCN1CCOC(c2ccccc2)(c2ccccc2)CC1` registered a melting point of 106 to 107 °C. With `c1ccc2c(c1)CCC1C2=NNC1c1ccncc1` (configuration not stated) the figure was 169 to 173 °C; with `Cc1c(=O)n(Cc2ccc(C(=O)OC(C)(C)C)cc2)c(=O)n2ccsc12`, 163 to 165 °C; with `O=C(O)CCON=c1c2nccc3cccc(c32)n2cccc12`, 250 °C.

For `CCN1CCN([C@@H](CNS(=O)(=O)c2ccc(OCc3cc(C)nc4ccccc34)cc2)C(=O)NO)CC1`, the melting point amounted to 150 °C.

The record behind these values is a melting point compilation (Tetko et al.; mined from patent text by program, amines drawn as free bases though some values may be those of a salt).
